≈ marks a conversion by molar mass, not a printed value. Calls of active or inactive are those of the source. The rule behind the calls is not given here.
Key:
Enterococcus faecalis [1] = assay: In vitro minimum inhibitory concentration against Enterococcus faecalis [(VRE) ATCC 346-VRE and 5B-VRE]; format: functional
Enterococcus faecalis [2] = assay: In vitro minimum inhibitory concentration against Enterococcus faecalis (ATCC 29212 and 21777); format: functional
Bacillus pumilus [3] = assay: In vitro minimum inhibitory concentration against Bacillus pumilus (ATCC 14884); format: functional
[4] = system: Staphylococcus epidermidis; assay: In vitro minimum inhibitory concentration against Staphylococcus epidermidis (ATCC 12228); format: functional
Enterococcus faecium [5] = assay: In vitro minimum inhibitory concentration against Enterococcus faecium (6A-VRE); format: functional
[6] = system: Salmonella enterica subsp. enterica serovar Abony; assay: In vitro minimum inhibitory concentration against Salmonella abony (NCTC 6017); format: functional
Pseudomonas aeruginosa [7] = assay: In vitro minimum inhibitory concentration against Pseudomonas aeruginosa (ATCC 27853); format: functional
Staphylococcus aureus [8] = assay: In vitro minimum inhibitory concentration against methicillin-resistant Staphylococcus aureus (ST450, ATCC 15187, ICH 1 and 37); format: functional
Escherichia coli [9] = assay: In vitro minimum inhibitory concentration against Escherichia coli (ATCC 25922); format: functional
Staphylococcus aureus [10] = assay: In vitro minimum inhibitory concentration against Staphylococcus aureus (ATCC 25923 and 29213); format: functional
[11] = system: Staphylococcus epidermidis; assay: In vitro minimum inhibitory concentration against methicillin-resistant Staphylococcus epidermidis (ATCC 23760); format: functional
Enterococcus faecalis [12] = assay: In vitro minimum inhibitory concentration against Enterococcus faecalis [(VRE) ATCC 346-VRE and 5B-VRE]; Range= 0.125-0.25 ug/mL; format: functional
[13] = system: Staphylococcus epidermidis; assay: In vitro minimum inhibitory concentration against Staphylococcus epidermidis (ATCC 12228); Range= 0.125-0.25 ug/mL; format: functional
Staphylococcus aureus [14] = assay: In vitro minimum inhibitory concentration against methicillin-resistant Staphylococcus aureus (ST450, ATCC 15187, ICH 1 and 37); Range= 0.125-0.25 ug/mL; format: functional
[15] = system: Staphylococcus saprophyticus; assay: In vitro minimum inhibitory concentration against Staphylococcus saprophyticus (ATCC 15305); format: functional
Enterococcus faecium [16] = assay: In vitro minimum inhibitory concentration against Enterococcus faecium (6A-VRE); NA= Not active in preliminary screening up to 50 ug/mL; format: functional, organism-based
Staphylococcus aureus [17] = assay: In vitro minimum inhibitory concentration against Staphylococcus aureus (ATCC 25923 and 29213); NA= Not active in preliminary screening up to 50 ug/mL; format: functional, organism-based
[18] = system: Salmonella enterica subsp. enterica serovar Abony; assay: In vitro minimum inhibitory concentration against Salmonella abony (NCTC 6017); NA= Not active in preliminary screening up to 50 ug/mL; format: functional, organism-based
Enterococcus faecalis [19] = assay: In vitro minimum inhibitory concentration against Enterococcus faecalis [(VRE) ATCC 346-VRE and 5B-VRE]; NA= Not active in preliminary screening up to 50 ug/mL; format: functional, organism-based
Pseudomonas aeruginosa [20] = assay: In vitro minimum inhibitory concentration against Pseudomonas aeruginosa (ATCC 27853); NA= Not active in preliminary screening up to 50 ug/mL; format: functional, organism-based
[21] = system: Staphylococcus saprophyticus; assay: In vitro minimum inhibitory concentration against Staphylococcus saprophyticus (ATCC 15305); NA= Not active in preliminary screening up to 50 ug/mL; format: functional, organism-based
Escherichia coli [22] = assay: In vitro minimum inhibitory concentration against Escherichia coli (ATCC 25922); NA= Not active in preliminary screening up to 50 ug/mL; format: functional, organism-based
Enterococcus faecalis [23] = assay: In vitro minimum inhibitory concentration against Enterococcus faecalis (ATCC 29212 and 21777); NA= Not active in preliminary screening up to 50 ug/mL; format: functional, organism-based
Bacillus pumilus [24] = assay: In vitro minimum inhibitory concentration against Bacillus pumilus (ATCC 14884); NA= Not active in preliminary screening up to 50 ug/mL; format: functional, organism-based
Staphylococcus aureus [25] = assay: In vitro minimum inhibitory concentration against methicillin-resistant Staphylococcus aureus (ST450, ATCC 15187, ICH 1 and 37); NA= Not active in preliminary screening up to 50 ug/mL; format: functional, organism-based
[26] = system: Staphylococcus epidermidis; assay: In vitro minimum inhibitory concentration against methicillin-resistant Staphylococcus epidermidis (ATCC 23760); NA= Not active in preliminary screening up to 50 ug/mL; format: functional, organism-based
[27] = system: Staphylococcus epidermidis; assay: In vitro minimum inhibitory concentration against Staphylococcus epidermidis (ATCC 12228); NA= Not active in preliminary screening up to 50 ug/mL; format: functional, organism-based
Staphylococcus aureus [28] = assay: In vitro minimum inhibitory concentration against Staphylococcus aureus (ATCC 25923 and 29213); Range 2-4 ug/mL; format: functional

Compound | MIC (Enterococcus faecalis [1]) [µg/mL] | MIC (Enterococcus faecalis [2]) [µg/mL] | MIC (Bacillus pumilus [3]) [µg/mL] | MIC [4] [µg/mL] | MIC (Enterococcus faecium [5]) [µg/mL] | MIC [6] [µg/mL] | MIC (Pseudomonas aeruginosa [7]) [µg/mL] | MIC (Staphylococcus aureus [8]) [µg/mL] | MIC (Escherichia coli [9]) | MIC (Staphylococcus aureus [10]) [µg/mL] | MIC [11] [µg/mL] | MIC [15] [µg/mL] | other results
O=C1O[C@@H](C/N=C(\S)OCCO)CN1c1ccc(-n2nnc3ccccc32)c(F)c1 | > 16 | > 16 | > 16 | > 16 | > 16 | > 16 | > 16 | > 16 | > 16 µg/mL | > 16 | > 16 | – | –
COC(=O)c1ccc2c(c1)nnn2-c1ccc(N2C[C@H](C/N=C(/N)S)OC2=O)cc1F | – | 0.125 (≈ 0.281 µM) | – | – | 0.25 (≈ 0.562 µM) | – | > 16 | – | > 16 µg/mL | 0.25 (≈ 0.562 µM) | 0.125 (≈ 0.281 µM) | 0.25 (≈ 0.562 µM) | MIC (Enterococcus faecalis [12]): 0.25 µg/mL (≈ 0.562 µM); MIC [13]: 0.25 µg/mL (≈ 0.562 µM); MIC (Staphylococcus aureus [14]): 0.25 µg/mL (≈ 0.562 µM)
CCN(CC)CC/N=C(\S)NC[C@H]1CN(c2ccc(-n3nnc4ccccc43)c(F)c2)C(=O)O1 | > 16 | > 16 | > 16 | > 16 | > 16 | > 16 | > 16 | > 16 | > 16 µg/mL | > 16 | > 16 | – | –
CN(C)CCO/C(S)=N/C[C@H]1CN(c2ccc(-n3nnc4ccccc43)c(F)c2)C(=O)O1 | > 16 | > 16 | > 16 | > 16 | > 16 | > 16 | > 16 | > 16 | > 16 µg/mL | > 16 | > 16 | > 16 | –
CC(=O)NC[C@H]1CN(c2ccc(N3CCOCC3)c(F)c2)C(=O)O1 [LINEZOLID] | – | – | – | 2 (≈ 5.93 µM) | 2 (≈ 5.93 µM) | > 16 | > 16 | – | > 16 µg/mL | – | 2 (≈ 5.93 µM) | > 16 | –
O=C1O[C@@H](CN/C(S)=N/CCCO)CN1c1ccc(-n2nnc3ccccc32)c(F)c1 | – | – | – | – | – | – | – | – | – | – | – | – | MIC (Enterococcus faecium [16]): inactive; MIC (Staphylococcus aureus [17]): inactive; MIC [18]: inactive; MIC (Enterococcus faecalis [19]): inactive; MIC (Pseudomonas aeruginosa [20]): inactive; MIC [21]: inactive; MIC (Escherichia coli [22]): inactive; MIC (Enterococcus faecalis [23]): inactive; MIC (Bacillus pumilus [24]): inactive; MIC (Staphylococcus aureus [25]): inactive; MIC [26]: inactive; MIC [27]: inactive
COC(=O)c1ccc2c(c1)nnn2-c1ccc(N2C[C@H](C/N=C(\S)OC)OC2=O)cc1F | 0.25 (≈ 0.544 µM) | 0.125 (≈ 0.272 µM) | – | 0.25 (≈ 0.544 µM) | 0.25 (≈ 0.544 µM) | – | > 16 | 0.25 (≈ 0.544 µM) | > 16 µg/mL | 0.25 (≈ 0.544 µM) | 0.125 (≈ 0.272 µM) | 0.25 (≈ 0.544 µM) | –
N=C(S)NC[C@H]1CN(c2ccc(-n3nnc4ccccc43)c(F)c2)C(=O)O1 | 0.25 (≈ 0.647 µM) | 0.25 (≈ 0.647 µM) | 0.25 (≈ 0.647 µM) | 0.25 (≈ 0.647 µM) | 16 (≈ 41.4 µM) | > 16 | > 16 | 0.25 (≈ 0.647 µM) | > 16 µg/mL | 0.25 (≈ 0.647 µM) | 0.125 (≈ 0.323 µM) | – | –
O=C1O[C@@H](C/N=C(\S)OCC(F)(F)C(F)F)CN1c1ccc(-n2nnc3ccccc32)c(F)c1 | – | – | – | – | – | – | – | – | inactive | – | – | – | MIC (Enterococcus faecium [16]): inactive; MIC (Staphylococcus aureus [17]): inactive; MIC [18]: inactive; MIC (Enterococcus faecalis [19]): inactive; MIC (Pseudomonas aeruginosa [20]): inactive; MIC [21]: inactive; MIC (Enterococcus faecalis [23]): inactive; MIC (Bacillus pumilus [24]): inactive; MIC (Staphylococcus aureus [25]): inactive; MIC [26]: inactive; MIC [27]: inactive
O=C1O[C@@H](C/N=C(\S)OCC(F)(F)F)CN1c1ccc(-n2nnc3ccccc32)c(F)c1 | – | – | – | – | – | – | – | – | – | – | – | – | MIC (Enterococcus faecium [16]): inactive; MIC (Staphylococcus aureus [17]): inactive; MIC [18]: inactive; MIC (Enterococcus faecalis [19]): inactive; MIC (Pseudomonas aeruginosa [20]): inactive; MIC [21]: inactive; MIC (Escherichia coli [22]): inactive; MIC (Enterococcus faecalis [23]): inactive; MIC (Bacillus pumilus [24]): inactive; MIC (Staphylococcus aureus [25]): inactive; MIC [26]: inactive; MIC [27]: inactive
CO/C(S)=N/C[C@H]1CN(c2ccc(-n3nnc4ccccc43)c(F)c2)C(=O)O1 | 1 (≈ 2.49 µM) | 1 (≈ 2.49 µM) | > 16 | 0.25 (≈ 0.623 µM) | 1 (≈ 2.49 µM) | > 16 | > 16 | 1 (≈ 2.49 µM) | > 16 µg/mL | 1 (≈ 2.49 µM) | 0.25 (≈ 0.623 µM) | – | –
O=C1O[C@@H](CN/C(S)=N/CCO)CN1c1ccc(-n2nnc3ccccc32)c(F)c1 | 1 (≈ 2.32 µM) | 1 (≈ 2.32 µM) | – | 2 (≈ 4.65 µM) | 1 (≈ 2.32 µM) | > 16 | > 16 | 2 (≈ 4.65 µM) | > 16 µg/mL | – | 0.5 (≈ 1.16 µM) | – | MIC (Staphylococcus aureus [28]): 4 µg/mL (≈ 9.29 µM)
